Results taken from PubChem BioAssay AID2060499 (Molecular Pharmacology Branch, DTP, NCI, 2025).
Several values for one entry are separate records, joined by “and”; a condition that tells them apart may be missing. Identical values can stand only once.

Test system: 777334-354-R2-J4-PDC tumor spheroids with HUVEC/MSC, viability
Test: Anticancer human tumor 777334-354-R2-J4-PDC patient-derived pancreatic adenocarcinoma cell line growth inhibition [GQUAD]
Details: for viability, T/C: stronger effect = lower value
Excerpt: DNA G-quadruplex Stabilizer Agents in Combinations in Complex Spheroids
A high-throughput screen of multi-cell type tumor spheroids was designed to identify active combinations of DNA G-quadruplex stabilizer agents and targeted small molecules. Complex spheroids include a stromal component modeled by human endothelial cells (HUVEC) and fibroblasts modeled by human mesenchymal stem cells (MSCs). The concentration ranges selected for each drug and investigational agent were based upon clinically achievable concentrations if the clinical Cmax of the agent was known.
Compounds. The drugs and investigational agents: pidnarulex (CX-5461; NSC782164), APTO-253 (NSC789042), BRACO-19 (NSC847499), peposertib (NSC802822), ceralasertib (NSC780249), elimusertib (NSC800525), camonsertib (NSC841442), AZD-1390 (NSC803789), olaparib (NSC753686), talazoparib (NSC767125), ART-558 (NSC835418), sotorasib (NSC818433), MRTX-1133 (NSC836407), SN-38 (NSC673596), topotecan (NSC609699), etoposide (NSC141540), doxorubicin (NSC123127), gemcitabine (NSC613327), 5-fluorouracil (NSC19893), paclitaxel (NSC125973), vemurafenib (NSC761431), panobinostat (NSC761190), R-306465 (JNJ-16241199; NSC773264), adavosertib (NSC754352), TP-3654 (NSC805149), carboplatin (NSC241240), KSQ-4279 (NSC840948), and staurosporine (NSC755774) were obtained from the National Cancer Institute (NCI) Developmental Therapeutics Program Chemical Repository (34). The FDA-approved anticancer drug set is available from the NCI Developmental Therapeutics Program. […] The stock solutions were prepared in dimethyl sulfoxide (DMSO, Sigma-Aldrich, St. Louis, MO, cat. D2650) at 800-fold the tested concentration and stored at -70 degrees C prior to their use. All drugs and investigational agents were tested over a range starting from a high concentration at or near the clinical Cmax and decreasing in half-log increments. If the clinical Cmax for an agent had not been determined, the highest concentration tested was 10 microM.
2.3 Cell Culture. All cells were maintained in an incubator at 37 degrees C and 5% CO2 with 95% humidity. The PDC lines were cultured according to standard operating procedures established by the NCI PDMR. All PDCs were thawed and cultured in Matrigel-coated flasks prepared with a working solution of 1X Ham's F-12 nutrient mix, without supplementation (Invitrogen, cat. 11765054), 100 U/mL penicillin-streptomycin (Invitrogen, cat. 15140122), and 2.5% Matrigel (Corning Inc., cat. 354248) for the first three passages. The 857933-349-R-J2-PDC line was cultured in 6C/Colon 1B media, which includes advanced DMEM/F-12 (Thermo Fisher Scientific, cat. 12634028), 10 mM HEPES (Thermo Fisher Scientific, cat. 15630080), 1X GlutaMAX supplement (Thermo Fisher Scientific, cat. 35050061), 0.1 mg/mL primocin (InvivoGen, cat. ant-pm-2), 10% defined fetal bovine serum, heat inactivated (HyClone Laboratories Inc., cat. SH30070.03HI), 50% L-WRN conditioned media (ATCC, cat. CRL-3276), 1.25 mM N-Acetyl-L-cysteine (Sigma-Aldrich, cat. A9165), 10 mM nicotinamide (Sigma-Aldrich, cat. N0636), 1X B-27 supplement (Thermo Fisher Scientific, cat. 17504044), 1X N-2 supplement (Thermo Fisher Scientific, cat. 17502048), 10 microM Y-27632 dihydrochloride (Tocris Bioscience, cat. 1254), and 50 ng/mL human EGF recombinant protein (Thermo Fisher Scientific, cat. PHG0311). The 485176-168-R4-J1-PDC line was cultured in Panc media, which includes all 6C/Colon 1B media components plus 100 ng/mL human FGF-10 (Thermo Fisher Scientific, cat. 100-26), 500 nM SB-431542 (Selleckchem, cat. S1067), and gastrin (Tocris, cat. 3006).
[…]

[1] = curve of first compound, second compound 0.0316 µM
[2] = curve of first compound, second compound 0.1 µM
[3] = curve of first compound, second compound 0.316 µM
[4] = curve of first compound, second compound 1 µM
[5] = curve of first compound, second compound 3.16 µM
[6] = curve of first compound, second compound 10 µM
[7] = second compound 0.0316 µM, first compound 0.0316 µM
[8] = second compound 0.0316 µM, first compound 0.1 µM
[9] = second compound 0.0316 µM, first compound 0.316 µM
[10] = second compound 0.0316 µM, first compound 1 µM
[11] = second compound 0.0316 µM, first compound 3.16 µM
[12] = second compound 0.0316 µM, first compound 10 µM
[13] = second compound 0.1 µM, first compound 0.0316 µM
[14] = second compound 0.1 µM, first compound 0.1 µM
[15] = second compound 0.1 µM, first compound 0.316 µM
[16] = second compound 0.1 µM, first compound 1 µM
[17] = second compound 0.1 µM, first compound 3.16 µM
[18] = second compound 0.1 µM, first compound 10 µM
[19] = second compound 0.316 µM, first compound 0.0316 µM
[20] = second compound 0.316 µM, first compound 0.1 µM
[21] = second compound 0.316 µM, first compound 0.316 µM
[22] = second compound 0.316 µM, first compound 1 µM
[23] = second compound 0.316 µM, first compound 3.16 µM
[24] = second compound 0.316 µM, first compound 10 µM
[25] = second compound 1 µM, first compound 0.0316 µM
[26] = second compound 1 µM, first compound 0.1 µM
[27] = second compound 1 µM, first compound 0.316 µM
[28] = second compound 1 µM, first compound 1 µM
[29] = second compound 1 µM, first compound 3.16 µM
[30] = second compound 1 µM, first compound 10 µM
[31] = second compound 3.16 µM, first compound 0.0316 µM
[32] = second compound 3.16 µM, first compound 0.1 µM
[33] = second compound 3.16 µM, first compound 0.316 µM
[34] = second compound 3.16 µM, first compound 1 µM
[35] = second compound 3.16 µM, first compound 3.16 µM
[36] = second compound 3.16 µM, first compound 10 µM
[37] = second compound 10 µM, first compound 0.0316 µM
[38] = second compound 10 µM, first compound 0.1 µM
[39] = second compound 10 µM, first compound 0.316 µM
[40] = second compound 10 µM, first compound 1 µM
[41] = second compound 10 µM, first compound 3.16 µM
[42] = second compound 10 µM, first compound 10 µM
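Further: spheroids exposed to compounds for 7 days before readout.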

In the case of `CC(C)(O)C1CCC(Nc2ccc3ncc(-c4cccc(C(F)(F)F)c4)n3n2)CC1` (stereo unspecified) + Cc1[nH]c2ccc(F)cc2c1-c1nc2c3cccnc3c3ncccc3c2[nH]1, the IC50 [1] is reported as 1500 nM, the IC50 [2] is reported as 1330 nM and the IC50 [3] is reported as 1060 nM. The IC50 [4] was 874 nM, the IC50 [5] was < 31.6 nM and the IC50 [6] was < 31.6 nM. For the same molecule, the viability, T/C [7] was 82.8%, the viability, T/C [8] was 97.5% and the viability, T/C [9] was 87.3%. The viability, T/C [10] was 59.9%, the viability, T/C [11] was 30.1% and the viability, T/C [12] was 33.9%. It also gave a viability, T/C [13] of 96.7%, a viability, T/C [14] of 94.5% and a viability, T/C [15] of 84.8%. The viability, T/C [16] was 55%, the viability, T/C [17] was 35.1% and the viability, T/C [18] was 32.4%. For the same molecule, the viability, T/C [19] was 96.7%, the viability, T/C [20] was 87.2% and the viability, T/C [21] was 87%. The viability, T/C [22] was 51.2%, the viability, T/C [23] was 30.3% and the viability, T/C [24] was 32.7%. It also gave a viability, T/C [25] of 86.7%, a viability, T/C [26] of 68.2% and a viability, T/C [27] of 82.4%. It also gave a viability, T/C [28] of 46.1%, a viability, T/C [29] of 29.7% and a viability, T/C [30] of 24.6%. It also gave a viability, T/C [31] of 35.1%, a viability, T/C [32] of 28.4% and a viability, T/C [33] of 23.2%. The viability, T/C [34] was 12.9%, the viability, T/C [35] was 8.53% and the viability, T/C [36] was 10.5%. The viability, T/C [37] was 26.7%, the viability, T/C [38] was 27.6% and the viability, T/C [39] was 18%. For the same molecule, the viability, T/C [40] was 12.3%, the viability, T/C [41] was 7.51% and the viability, T/C [42] was 7.22%.
With `CC(C)n1c(=O)n(C)c2cnc3cc(F)c(-c4ccc(OCCCN5CCCCC5)nc4)cc3c21` + Cc1[nH]c2ccc(F)cc2c1-c1nc2c3cccnc3c3ncccc3c2[nH]1 the IC50 [1] was > 10000 nM, the IC50 [2] was > 10000 nM and the IC50 [3] was > 10000 nM. For the same molecule, the IC50 [4] was > 10000 nM, the IC50 [5] was < 31.6 nM and the IC50 [6] was < 31.6 nM. For the same molecule, the viability, T/C [7] was 106%, the viability, T/C [8] was 108% and the viability, T/C [9] was 113%. It also gave a viability, T/C [10] of 115%, a viability, T/C [11] of 115% and a viability, T/C [12] of 96%. The viability, T/C [13] was 105%, the viability, T/C [14] was 89.5% and the viability, T/C [15] was 131%. It also gave a viability, T/C [16] of 103%, a viability, T/C [17] of 118% and a viability, T/C [18] of 98%. It also gave a viability, T/C [19] of 101%, a viability, T/C [20] of 99.5% and a viability, T/C [21] of 90.3%. The viability, T/C [22] was 110%, the viability, T/C [23] was 99.1% and the viability, T/C [24] was 93.5%. It also gave a viability, T/C [25] of 90.8%, a viability, T/C [26] of 84.7% and a viability, T/C [27] of 90.6%. It also gave a viability, T/C [28] of 101%, a viability, T/C [29] of 93.8% and a viability, T/C [30] of 70.8%. The viability, T/C [31] was 30.8%, the viability, T/C [32] was 50.4% and the viability, T/C [33] was 40%. For the same molecule, the viability, T/C [34] was 33.1%, the viability, T/C [35] was 28.5% and the viability, T/C [36] was 19.9%. The viability, T/C [37] was 28.7%, the viability, T/C [38] was 25.2% and the viability, T/C [39] was 41.9%. For the same molecule, the viability, T/C [40] was 28.4%, the viability, T/C [41] was 27.1% and the viability, T/C [42] was 13.5%.
`COc1cc(C2c3cc4c(cc3C(OC3OC5COC(C)OC5C(O)C3O)C3COC(=O)C23)OCO4)cc(OC)c1O` (stereo unspecified) was tested, and the viability, T/C (compound 0.0316 µM) was 94.6% and 85% and 95.3%, the viability, T/C (compound 0.1 µM) was 88.4% and 97.9% and 91.6% and the viability, T/C (compound 0.316 µM) was 88.8% and 89.8% and 94.8%. For the same molecule, the viability, T/C (compound 1 µM) was 71.9% and 74.2% and 72.8%, the viability, T/C (compound 3.16 µM) was 69.3% and 64% and 61.6% and the viability, T/C (compound 10 µM) was 41.3% and 38.2% and 35.7%. The IC50 (curve of compound) was 6820 nM and 5690 nM and 5030 nM.
